In PubChem BioAssay AID248 (DTP/NCI, 2004):
Several values for one entry are separate records, joined by “and”; a condition that tells them apart may be missing. Identical values can stand only once. Inconclusive results and toxic doses are left out. Cut-off read from the data, not from the text of the source: active = T/C of 150% or more; inactive = T/C below 125%. Square brackets hold non-standard residues; d marks the D form. Peptide text beside a SMILES is read from it. * marks the point of attachment. ξ: configuration not given here. ξE = NC(CCC(=O)O)C(=O)O; Cbz = O=C(OCc1ccccc1)*

System: L1210 leukemia ip in BDF1 mice, survival T/C
Experiment: NCI In Vivo Anticancer Drug Screen. Data for tumor model L1210 Leukemia (intraperitoneal) in B6D2F1 (BDF1) mice
Conditions: endpoint: mean survival time, higher = longer survival
Summary of the method: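 Transplanted-tumor mice were given test agent; controls received vehicle only. Survival readings from the two groups were divided (treated over control).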

[1] = dose: 100.0 mg/kg/injection, schedule: Q04DX003 (ip), vehicle: saline with Tween-80
[2] = dose: 5.0 mg/kg/injection, schedule: Q01DX001 (ip), vehicle: saline
[3] = dose: 10.0 mg/kg/injection, schedule: Q01DX001 (ip), vehicle: saline
[4] = dose: 20.0 mg/kg/injection, schedule: Q01DX001 (ip), vehicle: saline
[5] = dose: 100.0 mg/kg/injection, schedule: Q04DX003 (ip), vehicle: saline
[6] = dose: 200.0 mg/kg/injection, schedule: Q04DX003 (ip), vehicle: saline
[7] = dose: 400.0 mg/kg/injection, schedule: Q04DX003 (ip), vehicle: saline
[8] = dose: 100.0 mg/kg/injection, schedule: Q01DX001 (ip), vehicle: Klucel (hydroxypropylcellulose) (HPC)
[9] = dose: 200.0 mg/kg/injection, schedule: Q01DX001 (ip), vehicle: Klucel (hydroxypropylcellulose) (HPC)
[10] = dose: 100.0 mg/kg/injection, schedule: Q04DX003 (ip), vehicle: Klucel (hydroxypropylcellulose) (HPC)
[11] = dose: 200.0 mg/kg/injection, schedule: Q04DX003 (ip), vehicle: Klucel (hydroxypropylcellulose) (HPC)
[12] = dose: 50.0 mg/kg/injection, schedule: Q01DX009 (ip), vehicle: saline with Tween-80
[13] = dose: 100.0 mg/kg/injection, schedule: Q01DX009 (ip), vehicle: saline with Tween-80
[14] = dose: 200.0 mg/kg/injection, schedule: Q01DX009 (ip), vehicle: saline with Tween-80
[15] = dose: 400.0 mg/kg/injection, schedule: Q01DX009 (ip), vehicle: saline with Tween-80
[16] = dose: 100.0 mg/kg/injection, schedule: Q01DX001 (ip), vehicle: saline
[17] = dose: 200.0 mg/kg/injection, schedule: Q01DX001 (ip), vehicle: saline

Measured: T/C

O=C(C=C(C(F)(F)F)C(F)(F)F)c1ccc(Cl)c([N+](=O)[O-])c1
inactive: dose: 0.5 mg/kg/injection, schedule: Q01DX009 (ip), vehicle: other 98 % of control | dose: 1.0 mg/kg/injection, schedule: Q01DX009 (ip), vehicle: other 95 % of control | dose: 2.5 mg/kg/injection, schedule: Q01DX009 (ip), vehicle: other 101 % of control | dose: 2.5 mg/kg/injection, schedule: Q01DX009 (ip), vehicle: saline with Tween-80 96 % of control | dose: 6.0 mg/kg/injection, schedule: Q01DX001 (ip), vehicle: saline with Tween-80 103 % of control | dose: 12.0 mg/kg/injection, schedule: Q01DX001 (ip), vehicle: saline with Tween-80 98 % of control | dose: 25.0 mg/kg/injection, schedule: Q01DX001 (ip), vehicle: saline with Tween-80 95 % of control and 100 % of control

CCOC(=O)c1cnn2c(=O)[nH]cnc12
inactive: [1] 98 % of control | dose: 200.0 mg/kg/injection, schedule: Q04DX003 (ip), vehicle: saline with Tween-80 109 % of control

O=C(C[n+]1ccccc1-c1ccccn1)c1ccccc1
inactive: [2] 103 % of control | [3] 103 % of control | [4] 105 % of control | dose: 40.0 mg/kg/injection, schedule: Q01DX001 (ip), vehicle: saline 113 % of control

CCNc1nc(C(F)(F)F)nc2[nH]ncc12
inactive: dose: 100.0 mg/kg/injection, schedule: Q01DX001 (ip), vehicle: acetone 101 % of control | [5] 101 % of control | dose: 200.0 mg/kg/injection, schedule: Q01DX001 (ip), vehicle: acetone 90 % of control | [6] 95 % of control | dose: 400.0 mg/kg/injection, schedule: Q01DX001 (ip), vehicle: acetone 90 % of control | [7] 97 % of control

CC1(C)N=C(N)N=C(N)N1c1ccc(CC(CCc2ccccc2)C(=O)Nc2ccc(S(=O)(=O)F)cc2)cc1 (stereo unspecified)
inactive: [8] 90 % of control | [9] 97 % of control | dose: 400.0 mg/kg/injection, schedule: Q01DX001 (ip), vehicle: Klucel (hydroxypropylcellulose) (HPC) 90 % of control

C=C(C)C(=O)Nc1ccccc1
inactive: [10] 86 % of control | [11] 89 % of control

COc1ccc2c(c1)CCC1C2=CCC2C(=O)CCC(=O)C21 (stereo unspecified)
inactive: dose: 50.0 mg/kg/injection, schedule: Q01DX001 (ip), vehicle: Klucel (hydroxypropylcellulose) (HPC) 101 % of control | [8] 101 % of control | [9] 93 % of control

CCCCC(I)C(C)(C)[n+]1ccccc1 (stereo unspecified)
inactive: dose: 12.5 mg/kg/injection, schedule: Q01DX009 (ip), vehicle: saline with Tween-80 119 % of control | dose: 12.5 mg/kg/injection, schedule: Q04DX003 (ip), vehicle: saline with Tween-80 100 % of control | dose: 25.0 mg/kg/injection, schedule: Q01DX009 (ip), vehicle: saline with Tween-80 106 % of control | dose: 25.0 mg/kg/injection, schedule: Q04DX003 (ip), vehicle: saline with Tween-80 96 % of control | [12] 101 % of control | dose: 50.0 mg/kg/injection, schedule: Q04DX003 (ip), vehicle: saline with Tween-80 100 % of control

O=C(O)CCC(NC(=O)OCc1ccccc1)C(=O)NCC(=O)O (stereo unspecified) (Cbz-[ξE]-Gly-OH)
inactive: dose: 12.5 mg/kg/injection, schedule: Q04DX002 (ip), vehicle: saline 95 % of control | dose: 25.0 mg/kg/injection, schedule: Q04DX002 (ip), vehicle: saline 92 % of control | dose: 50.0 mg/kg/injection, schedule: Q04DX002 (ip), vehicle: saline 100 % of control

CC1(C)C2CCC1(C)C(OC(=O)c1ccc([N+](=O)[O-])cc1)C2OC(=O)c1ccc([N+](=O)[O-])cc1 (stereo unspecified)
inactive: dose: 75.0 mg/kg/injection, schedule: Q01DX009 (ip), vehicle: saline 108 % of control | dose: 150.0 mg/kg/injection, schedule: Q01DX009 (ip), vehicle: saline 103 % of control | dose: 300.0 mg/kg/injection, schedule: Q01DX009 (ip), vehicle: saline 97 % of control

CC(C)C/C=C/C1CCCCC1 (tested in a mixture with another compound)
inactive: [12] 101 % of control | [13] 93 % of control | [14] 97 % of control

C=CCNC(=O)C(Br)(CC)CC
inactive: dose: 100.0 mg/kg/injection, schedule: Q01DX009 (ip), vehicle: saline 92 % of control | [5] 96 % of control | dose: 200.0 mg/kg/injection, schedule: Q01DX009 (ip), vehicle: saline 92 % of control | [6] 96 % of control

CC(=O)Nc1ccc(NC(=O)Nc2cccc(C(C)=O)c2)cc1
inactive: dose: 100.0 mg/kg/injection, schedule: Q01DX009 (ip), vehicle: Klucel (hydroxypropylcellulose) (HPC) 90 % of control | dose: 200.0 mg/kg/injection, schedule: Q01DX009 (ip), vehicle: Klucel (hydroxypropylcellulose) (HPC) 101 % of control | dose: 400.0 mg/kg/injection, schedule: Q01DX009 (ip), vehicle: Klucel (hydroxypropylcellulose) (HPC) 101 % of control

OCC1OC(OC2C(CO)OCC(O)C2O)C(O)C(O)C1O (stereo unspecified)
inactive: dose: 100.0 mg/kg/injection, schedule: Q04DX002 (ip), vehicle: saline with Tween-80 100 % of control | dose: 200.0 mg/kg/injection, schedule: Q04DX002 (ip), vehicle: saline with Tween-80 100 % of control | dose: 400.0 mg/kg/injection, schedule: Q04DX002 (ip), vehicle: saline with Tween-80 88 % of control

Nc1ncnc2c1ncn2C1OC(CCO)C(O)C1O (stereo unspecified)
inactive: dose: 100.0 mg/kg/injection, schedule: Q01DX001 (ip), vehicle: carboxymethylcellulose (CMC) 100 % of control | dose: 200.0 mg/kg/injection, schedule: Q01DX001 (ip), vehicle: carboxymethylcellulose (CMC) 96 % of control | dose: 400.0 mg/kg/injection, schedule: Q01DX001 (ip), vehicle: carboxymethylcellulose (CMC) 93 % of control

COc1ccc(C2C3C=CC(C3)C2C(=O)O)cc1 (stereo unspecified)
inactive: [13] 97 % of control | [1] 93 % of control | [14] 93 % of control | [15] 95 % of control | dose: 400.0 mg/kg/injection, schedule: Q04DX003 (ip), vehicle: saline with Tween-80 91 % of control

COc1ccc(C[As+](Cc2ccccc2)(Cc2ccc(OC)cc2)Cc2ccc(OC)cc2)cc1
inactive: [2] 103 % of control | [3] 98 % of control | [4] 96 % of control

COc1ccc(C2=CN(S(=O)(=O)c3ccc(C)cc3)CCc3ccccc32)cc1
inactive: [10] 96 % of control | [11] 102 % of control | dose: 400.0 mg/kg/injection, schedule: Q04DX003 (ip), vehicle: Klucel (hydroxypropylcellulose) (HPC) 92 % of control

COC1=C(N)C(=O)C(OC)=C(N)C1=O
inactive: [16] 94 % of control | [17] 97 % of control

CCOC(=O)C1CSCN1 (stereo unspecified)
inactive: [5] 104 % of control | [6] 89 % of control

Cc1nc(Cl)c(C#N)c(C)c1[N+](=O)[O-]
inactive: [5] 95 % of control | [6] 90 % of control

IC12CC3CC(CC(C3)C1)C2
inactive: [13] 93 % of control | [14] 87 % of control | [15] 97 % of control

CCOC(=O)CC#N
inactive: [5] 103 % of control | [6] 103 % of control | [7] 102 % of control

O=[N+]([O-])c1ccc(S(=O)(=O)/N=C2\CCS(=O)(=O)c3ccccc32)cc1
inactive: [16] 92 % of control | [17] 92 % of control | dose: 400.0 mg/kg/injection, schedule: Q01DX001 (ip), vehicle: saline 93 % of control
